Reference: paper PMC10408569, “Recruitment of hexahydroquinoline as anticancer scaffold targeting inhibition of wild and mutants EGFR (EGFR^WT, EGFR^T790M, and EGFR^L858R)” (Journal of Enzyme Inhibition and Medicinal Chemistry, 2023)

What was measured:
HS 578T = test: NCI-60 anticancer screening (SRB); format: cell-based; conditions: Homo sapiens; HS 578T, breast cancer; one dose 10 μM; read-out: Growth Inhibition Percentage (GI %)
HOP-92 = test: NCI-60 anticancer screening (SRB); format: cell-based; conditions: Homo sapiens; HOP-92, NSC lung cancer; one dose 10 μM; read-out: Growth Inhibition Percentage (GI %)
SK-MEL-2 = test: NCI-60 anticancer screening (SRB); format: cell-based; conditions: Homo sapiens; SK-MEL-2, melanoma; one dose 10 μM; read-out: Growth Inhibition Percentage (GI %)
COLO 205 = test: NCI-60 anticancer screening (SRB); format: cell-based; conditions: Homo sapiens; COLO 205, colon cancer; one dose 10 μM; read-out: Growth Inhibition Percentage (GI %)
U251 = test: NCI-60 anticancer screening (SRB); format: cell-based; conditions: Homo sapiens, U-251; U251, CNS cancer; one dose 10 μM; read-out: Growth Inhibition Percentage (GI %)
MCF7 = test: NCI-60 anticancer screening (SRB); format: cell-based; conditions: Homo sapiens; MCF7, breast cancer; one dose 10 μM; read-out: Growth Inhibition Percentage (GI %)
OVCAR-3 = test: NCI-60 anticancer screening (SRB); format: cell-based; conditions: Homo sapiens; OVCAR-3, ovarian cancer; one dose 10 μM; read-out: Growth Inhibition Percentage (GI %)
CCRF-CEM = test: NCI-60 anticancer screening (SRB); format: cell-based; conditions: Homo sapiens, leukemia, one dose 10 μM, read-out: Growth Inhibition Percentage (GI %)
NCI-H522 = test: NCI-60 anticancer screening (SRB); format: cell-based; conditions: Homo sapiens; NCI-H522, NSC lung cancer; one dose 10 μM; read-out: Growth Inhibition Percentage (GI %)
A498 = test: NCI-60 anticancer screening (SRB); format: cell-based; conditions: Homo sapiens; A498, renal cancer; one dose 10 μM; read-out: Growth Inhibition Percentage (GI %)
MOLT-4 = test: NCI-60 anticancer screening (SRB); format: cell-based; conditions: Homo sapiens; MOLT-4, leukemia; one dose 10 μM; read-out: Growth Inhibition Percentage (GI %)
SNB-75 = test: NCI-60 anticancer screening (SRB); format: cell-based; conditions: Homo sapiens; SNB-75, CNS cancer; one dose 10 μM; read-out: Growth Inhibition Percentage (GI %)
SF-295 = test: NCI-60 anticancer screening (SRB); format: cell-based; conditions: Homo sapiens; SF-295, CNS cancer; one dose 10 μM; read-out: Growth Inhibition Percentage (GI %)
SK-MEL-28 = test: NCI-60 anticancer screening (SRB); format: cell-based; conditions: Homo sapiens; SK-MEL-28, melanoma; one dose 10 μM; read-out: Growth Inhibition Percentage (GI %)
DU-145 = test: NCI-60 anticancer screening (SRB); format: cell-based; conditions: Homo sapiens; DU-145, prostate cancer; one dose 10 μM; read-out: Growth Inhibition Percentage (GI %)
BT-549 = test: NCI-60 anticancer screening (SRB); format: cell-based; conditions: Homo sapiens; BT-549, breast cancer; one dose 10 μM; read-out: Growth Inhibition Percentage (GI %)
786-0 = test: NCI-60 anticancer screening (SRB); format: cell-based; conditions: Homo sapiens; 786-0, renal cancer; one dose 10 μM; read-out: Growth Inhibition Percentage (GI %)
OVCAR-4 = test: NCI-60 anticancer screening (SRB); format: cell-based; conditions: Homo sapiens; OVCAR-4, ovarian cancer; one dose 10 μM; read-out: Growth Inhibition Percentage (GI %)
MDA-MB-468 = test: NCI-60 anticancer screening (SRB); format: cell-based; conditions: Homo sapiens; MDA-MB-468, breast cancer; one dose 10 μM; read-out: Growth Inhibition Percentage (GI %)
K-562 = test: NCI-60 anticancer screening (SRB); format: cell-based; conditions: Homo sapiens, K562; K-562, leukemia; one dose 10 μM; read-out: Growth Inhibition Percentage (GI %)
M14 = test: NCI-60 anticancer screening (SRB); format: cell-based; conditions: Homo sapiens; M14, melanoma; one dose 10 μM; read-out: Growth Inhibition Percentage (GI %)
EKVX = test: NCI-60 anticancer screening (SRB); format: cell-based; conditions: Homo sapiens, NSC lung cancer, one dose 10 μM, read-out: Growth Inhibition Percentage (GI %)
CAKI-1 = test: NCI-60 anticancer screening (SRB); format: cell-based; conditions: Homo sapiens; CAKI-1, renal cancer; one dose 10 μM; read-out: Growth Inhibition Percentage (GI %)
HL-60(TB) = test: NCI-60 anticancer screening (SRB); format: cell-based; conditions: Homo sapiens, leukemia, one dose 10 μM, read-out: Growth Inhibition Percentage (GI %)
OVCAR-8 = test: NCI-60 anticancer screening (SRB); format: cell-based; conditions: Homo sapiens; OVCAR-8, ovarian cancer; one dose 10 μM; read-out: Growth Inhibition Percentage (GI %)
NCI/ADR-RES = test: NCI-60 anticancer screening (SRB); format: cell-based; conditions: Homo sapiens, ovarian cancer, one dose 10 μM, read-out: Growth Inhibition Percentage (GI %)
UACC-62 = test: NCI-60 anticancer screening (SRB); format: cell-based; conditions: Homo sapiens; UACC-62, melanoma; one dose 10 μM; read-out: Growth Inhibition Percentage (GI %)
UO-31 = test: NCI-60 anticancer screening (SRB); format: cell-based; conditions: Homo sapiens; UO-31, renal cancer; one dose 10 μM; read-out: Growth Inhibition Percentage (GI %)
LOX IMVI = test: NCI-60 anticancer screening (SRB); format: cell-based; conditions: Homo sapiens, melanoma, one dose 10 μM, read-out: Growth Inhibition Percentage (GI %)
TK-10 = test: NCI-60 anticancer screening (SRB); format: cell-based; conditions: Homo sapiens; TK-10, renal cancer; one dose 10 μM; read-out: Growth Inhibition Percentage (GI %)
MALME-3M = test: NCI-60 anticancer screening (SRB); format: cell-based; conditions: Homo sapiens, melanoma, one dose 10 μM, read-out: Growth Inhibition Percentage (GI %)
SF-268 = test: NCI-60 anticancer screening (SRB); format: cell-based; conditions: Homo sapiens; SF-268, CNS cancer; one dose 10 μM; read-out: Growth Inhibition Percentage (GI %)
NCI-H226 = test: NCI-60 anticancer screening (SRB); format: cell-based; conditions: Homo sapiens; NCI-H226, NSC lung cancer; one dose 10 μM; read-out: Growth Inhibition Percentage (GI %)

## CCOC(=O)C1=C(N)N(c2ccccc2)C2=C(C(=O)CC(C)(C)C2)C1c1ccc(Cl)cc1 (racemic) [8c, (±)-Ethyl 2-amino-4–(4-chlorophenyl)-7,7-dimethyl-5-oxo-1-phenyl-1,4,5,6,7,8-hexahydroquinoline-3-carboxylate]
HS 578T
  inhibition at 10 µM: 28%
HOP-92
  inhibition at 10 µM: 30%
SK-MEL-2
  inhibition at 10 µM: 70%
COLO 205
  inhibition at 10 µM: 118%
U251
  inhibition at 10 µM: 58%
MCF7
  inhibition at 10 µM: 83%
OVCAR-3
  inhibition at 10 µM: 48%
CCRF-CEM
  inhibition at 10 µM: 85%
NCI-H522
  inhibition at 10 µM: 62%
A498
  inhibition at 10 µM: 33%
MOLT-4
  inhibition at 10 µM: 99%
other
  melting point: 215 to 217 °C
SNB-75
  inhibition at 10 µM: 27%
SF-295
  inhibition at 10 µM: 79%
SK-MEL-28
  inhibition at 10 µM: 56%
DU-145
  inhibition at 10 µM: 42%
BT-549
  inhibition at 10 µM: 57%
786-0
  inhibition at 10 µM: 33%
OVCAR-4
  inhibition at 10 µM: 71%
MDA-MB-468
  inhibition at 10 µM: 67%
K-562
  inhibition at 10 µM: 82%
M14
  inhibition at 10 µM: 72%
EKVX
  inhibition at 10 µM: 72%
CAKI-1
  inhibition at 10 µM: 50%
HL-60(TB)
  inhibition at 10 µM: 94%
OVCAR-8
  inhibition at 10 µM: 39%
NCI/ADR-RES
  inhibition at 10 µM: 74%
UACC-62
  inhibition at 10 µM: 78%
UO-31
  inhibition at 10 µM: 71%
LOX IMVI
  inhibition at 10 µM: 59%
TK-10
  inhibition at 10 µM: 20%
MALME-3M
  inhibition at 10 µM: 84%
SF-268
  inhibition at 10 µM: 42%
NCI-H226
  inhibition at 10 µM: 30%

## CCOC(=O)C1=C(N)N(c2ccc(C)cc2)C2=C(C(=O)CC(C)(C)C2)C1c1ccc(Cl)cc1 (racemic) [8d, (±)-Ethyl 2-amino-4–(4-chlorophenyl)-7,7-dimethyl-1–(4-methylphenyl)-5-oxo-1,4,5,6,7,8-hexahydroquinoline-3-carboxylate]
HS 578T
  inhibition at 10 µM: < 10%
HOP-92
  inhibition at 10 µM: < 10%
SK-MEL-2
  inhibition at 10 µM: < 10%
COLO 205
  inhibition at 10 µM: 23%
U251
  inhibition at 10 µM: < 10%
MCF7
  inhibition at 10 µM: 35%
OVCAR-3
  inhibition at 10 µM: 16%
CCRF-CEM
  inhibition at 10 µM: < 10%
NCI-H522
  inhibition at 10 µM: 15%
A498
  inhibition at 10 µM: < 10%
MOLT-4
  inhibition at 10 µM: < 10%
other
  melting point: 205 to 207 °C
SNB-75
  inhibition at 10 µM: 35%
SF-295
  inhibition at 10 µM: < 10%
SK-MEL-28
  inhibition at 10 µM: < 10%
DU-145
  inhibition at 10 µM: < 10%
BT-549
  inhibition at 10 µM: < 10%
786-0
  inhibition at 10 µM: < 10%
OVCAR-4
  inhibition at 10 µM: < 10%
MDA-MB-468
  inhibition at 10 µM: 18%
K-562
  inhibition at 10 µM: < 10%
M14
  inhibition at 10 µM: < 10%
EKVX
  inhibition at 10 µM: 15%
CAKI-1
  inhibition at 10 µM: 30%
HL-60(TB)
  inhibition at 10 µM: 21%
OVCAR-8
  inhibition at 10 µM: 13%
NCI/ADR-RES
  inhibition at 10 µM: < 10%
UACC-62
  inhibition at 10 µM: 24%
UO-31
  inhibition at 10 µM: 16%
LOX IMVI
  inhibition at 10 µM: < 10%
TK-10
  inhibition at 10 µM: < 10%
MALME-3M
  inhibition at 10 µM: < 10%
SF-268
  inhibition at 10 µM: < 10%
NCI-H226
  inhibition at 10 µM: < 10%

## CCOC(=O)C1=C(N)N(c2ccc(Cl)cc2)C2=C(C(=O)CC(C)(C)C2)C1c1ccc(Cl)cc1 (racemic) [8e, (±)-Ethyl 2-amino-1,4-bis (4-chlorophenyl)-7,7-dimethyl-5-oxo-1,4,5,6,7,8-hexahydroquinoline-3-carboxylate]
HS 578T
  inhibition at 10 µM: 44%
HOP-92
  inhibition at 10 µM: < 10%
SK-MEL-2
  inhibition at 10 µM: < 10%
COLO 205
  inhibition at 10 µM: 53%
U251
  inhibition at 10 µM: 31%
MCF7
  inhibition at 10 µM: 56%
OVCAR-3
  inhibition at 10 µM: 16%
CCRF-CEM
  inhibition at 10 µM: 61%
NCI-H522
  inhibition at 10 µM: 19%
A498
  inhibition at 10 µM: < 10%
MOLT-4
  inhibition at 10 µM: 89%
other
  melting point: 220 to 222 °C
SNB-75
  inhibition at 10 µM: 27%
SF-295
  inhibition at 10 µM: 33%
SK-MEL-28
  inhibition at 10 µM: 26%
DU-145
  inhibition at 10 µM: 12%
BT-549
  inhibition at 10 µM: 21%
786-0
  inhibition at 10 µM: 23%
OVCAR-4
  inhibition at 10 µM: 54%
MDA-MB-468
  inhibition at 10 µM: 33%
K-562
  inhibition at 10 µM: 63%
M14
  inhibition at 10 µM: 49%
EKVX
  inhibition at 10 µM: 33%
CAKI-1
  inhibition at 10 µM: 19%
HL-60(TB)
  inhibition at 10 µM: 62%
OVCAR-8
  inhibition at 10 µM: 30%
NCI/ADR-RES
  inhibition at 10 µM: 32%
UACC-62
  inhibition at 10 µM: 28%
UO-31
  inhibition at 10 µM: 34%
LOX IMVI
  inhibition at 10 µM: 11%
TK-10
  inhibition at 10 µM: 11%
MALME-3M
  inhibition at 10 µM: 39%
SF-268
  inhibition at 10 µM: 22%
NCI-H226
  inhibition at 10 µM: < 10%

## CCOC(=O)C1=C(N)N(c2ccccc2)C2=C(C(=O)CC(C)(C)C2)C1c1ccc(OC)cc1 (racemic) [8f, (±)-Ethyl2-amino-4–(4-methoxyphenyl)-7,7-dimethyl-5-oxo-1-phenyl-1,4,5,6,7,8-hexahydroquinoline-3-carboxylate]
HS 578T
  inhibition at 10 µM: 12%
HOP-92
  inhibition at 10 µM: < 10%
SK-MEL-2
  inhibition at 10 µM: 16%
COLO 205
  inhibition at 10 µM: < 10%
U251
  inhibition at 10 µM: < 10%
MCF7
  inhibition at 10 µM: 13%
OVCAR-3
  inhibition at 10 µM: < 10%
CCRF-CEM
  inhibition at 10 µM: < 10%
NCI-H522
  inhibition at 10 µM: < 10%
A498
  inhibition at 10 µM: < 10%
MOLT-4
  inhibition at 10 µM: 14%
other
  melting point: 169 to 171 °C
SNB-75
  inhibition at 10 µM: < 10%
SF-295
  inhibition at 10 µM: < 10%
SK-MEL-28
  inhibition at 10 µM: < 10%
DU-145
  inhibition at 10 µM: < 10%
BT-549
  inhibition at 10 µM: < 10%
786-0
  inhibition at 10 µM: 11%
OVCAR-4
  inhibition at 10 µM: < 10%
MDA-MB-468
  inhibition at 10 µM: < 10%
K-562
  inhibition at 10 µM: < 10%
M14
  inhibition at 10 µM: < 10%
EKVX
  inhibition at 10 µM: < 10%
CAKI-1
  inhibition at 10 µM: 22%
HL-60(TB)
  inhibition at 10 µM: < 10%
OVCAR-8
  inhibition at 10 µM: < 10%
NCI/ADR-RES
  inhibition at 10 µM: < 10%
UACC-62
  inhibition at 10 µM: < 10%
UO-31
  inhibition at 10 µM: < 10%
LOX IMVI
  inhibition at 10 µM: < 10%
TK-10
  inhibition at 10 µM: < 10%
MALME-3M
  inhibition at 10 µM: < 10%
SF-268
  inhibition at 10 µM: < 10%
NCI-H226
  inhibition at 10 µM: 12%
